{"source": "patent EP0612472A1", "about": "“Herbicidal combinations comprising triazole derivatives (III)” (MONSANTO EUROPE S.A., priority 1993, dated 1994)", "tested_on": "Galium aparine", "test": "field experiment, tank mix, Belgium", "type": "in vivo", "source_text": "A field experiment has been carried out during winter time (November 1990) in Belgium.\nApplication was made at 250 l/ha using standard spraying equipment (Backpack sprayer; Nozzles XR 11003). Randomised block design with 3 replicates was used. Unit plot size was 2 X 6m². The soil surface was moist. Total ground cover: 20% crop, 10% weeds and 70% bare ground.\nThe plant species tested and corresponding true leave stage are:\nThe herbicides tested are the herbicide A as described in Example 1 in tank mix with another phytohormone type of herbicide, that is mecoprop. 0.2% surfactant (Tween® 20) has been added to the tank.\nThe results in table 2 hereafter are presented as average values of three replications."}
{"molecule": "Cc1cc(Cl)ccc1OC(C)C(=O)O", "note": "(centres unmarked) [mecoprop]", "values": [{"measurement": "control, GALAP 120 DAT", "setting": "RATE 1000 g a.i/ha", "value": 73.3, "unit": "%"}, {"measurement": "control, GALAP 120 DAT", "setting": "RATE 1200 g a.i/ha", "value": 66.7, "unit": "%"}]}
